Experimental data published in US9402826B2, “Neuronal pain pathway modulators” (The Trustees of Columbia University in the City of New York, priority 2006, dated 2016).
Like-named read-outs stand apart in the source and are kept apart here.

Assays:
PKG = target: T1, PKG (Homo sapiens, UniProt Q13976); assay: PKG inhibition: transfer of gamma-32P from ATP to peptide substrate; type: biochemical
T1 sequence (Q13976 1-671): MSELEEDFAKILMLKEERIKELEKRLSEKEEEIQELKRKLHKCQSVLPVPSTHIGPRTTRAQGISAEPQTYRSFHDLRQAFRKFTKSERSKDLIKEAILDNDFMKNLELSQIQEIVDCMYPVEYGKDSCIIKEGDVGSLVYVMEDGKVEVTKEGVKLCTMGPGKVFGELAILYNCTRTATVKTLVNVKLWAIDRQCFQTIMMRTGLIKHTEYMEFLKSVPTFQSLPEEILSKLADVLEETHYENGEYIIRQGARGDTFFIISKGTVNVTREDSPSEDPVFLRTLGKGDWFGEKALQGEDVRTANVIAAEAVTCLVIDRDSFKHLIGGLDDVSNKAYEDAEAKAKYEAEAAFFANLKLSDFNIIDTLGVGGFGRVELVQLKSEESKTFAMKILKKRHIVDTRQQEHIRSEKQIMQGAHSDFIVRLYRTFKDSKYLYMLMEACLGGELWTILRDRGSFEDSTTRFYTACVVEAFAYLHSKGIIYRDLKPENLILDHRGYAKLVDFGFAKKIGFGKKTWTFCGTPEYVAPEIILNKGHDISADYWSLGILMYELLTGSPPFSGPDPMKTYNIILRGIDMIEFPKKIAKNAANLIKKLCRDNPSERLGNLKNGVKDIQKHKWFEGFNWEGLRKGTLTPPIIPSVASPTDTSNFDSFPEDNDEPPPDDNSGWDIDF

PKA [1] = target: T2, PKA (Homo sapiens, UniProt P17612); assay: PKA inhibition; type: biochemical; settings: for difference of IC50 for PKA versus PKG: PKA IC50 relative to PKG IC50
PKC isoforms = settings: Series B, Table 2; read-out: IC50 PKC isoforms from literature; cited from earlier work
PKA [2] = target: T2, PKA; settings: cited from earlier work
[3] = system: CFA-induced thermal hyperalgesia in the hindpaws of rats; assay: CFA-induced thermal hyperalgesia, hindpaw withdrawal latency; type: in vivo; settings: rat; for Effectiveness: 24 hours after CFA injection
Procedure: Both compounds were further tested for their efficacy in reducing complete Freund's adjuvant (CFA)-induced thermal hyperalgesia in the hindpaws of rats. The hindpaws of rats were first tested for their response to a thermal probe as a baseline reference. Then the right hindpaw was injected with CFA (100 μl). The injected site developed edema and redness, indicating an inflammatory reaction, within 12 hours. […] The rats were then given either compound 6 or 46 at different times after CFA injection via different routes as shown in the tables below. Each hindpaw was then tested for its response to a thermal stimulus on successive days.

rats [4] = assay: Behavioural and motor observation of treated rats; type: in vivo; settings: rat; eating, sleeping, defecating, micturation, balance, exploring, socialization
Procedure: Modification of compound 6 to increase affinity and selectivity, and perhaps plasma half-life, as described above, will be important. […] For example, the animals had difficulty in changing from the supine to prone positions. […] The effects lasted for at least 24 hours and disappeared after 3 days.

rats [5] = settings: intrathecal, after induction of an inflammatory response, 10 and 60 minutes later; cited from earlier work
[6] = Activity: IC50 vrs PKG, Series B, 30 μM ATP
[7] = Table 4, read-out: PKA inhibition (IC50)

For `O=C(Nc1ccccc1)Nc1ccc(C(=O)O[C@@H]2CCC[C@H]2NC(=O)c2ccc(O)cc2)cc1` (relative stereo) [Series A 11], the “Activity (ability to inhibit PKG)” value (PKG; Series A, compounds at 10 μM, 30 μM ATP) was “no inhibition”.

With `O=C(OCc1ccccc1Cl)c1ccc(-c2ccc(O)cc2)cc1` [Compound 8J] the “inhibition of PKG activity” value (PKG; 10 μM compound, average of two independent experiments) was “weaker inhibition” and the “inhibitory activity on PKG (in words)” value (PKG; 1 and 10 micromolar compound (FIGS. 10A-B)) was “significant inhibitory activity”.

With `O=C(NC1CCCC1OC(=O)c1cc(O)c(C(=O)c2c(O)cccc2C(=O)O)c(O)c1)c1ccc(O)cc1` (stereo not shown) [Compound B-1, reference compound] the IC50 (PKG; [6]) was 7 to 8 nM, the IC50 (PKG; PKG activity (IC50), Table 1) was 7 to 8 nM and the IC50 (PKG; PKG inhibition (IC50), Table 3) was 7 nM. For the same compound, the “difference of IC50 for PKA versus PKG” value (PKA [1]) was 3 fold.

For `O=C(NC1CNCC1OC(=O)c1cc(O)c(C(=O)c2c(O)cccc2C(=O)O)c(O)c1)c1ccc(O)cc1` (stereo not shown) [Compound B-2, reference compound], the “reduction of PKG inhibition relative to balanol” value (PKG) was 5 fold, the IC50 (PKG; [6]) was 7 nM and the IC50 (PKG; PKG activity (IC50), Table 1) was 7 nM. The IC50 (PKG; PKG inhibition (IC50), Table 3) was 7 nM, the “difference of IC50 for PKA versus PKG” value (PKA [1]) was 3 fold and the IC50 (PKC isoforms) was 4 to 33 nM. The IC50 (PKA [2]; read-out: IC50 PKA from literature, Series B, Table 2) was 70 nM, the IC50 (PKA [2]; read-out: PKA activity (IC50), Table 1, from Lai et al. 1997) was 4 to 33 nM and the IC50 (PKA [2]; read-out: PKA inhibition (IC50), Table 3, same values given as from literature in Table 2) was 70 nM.

Compound `COCOc1ccc(OC)c(F)c1C(=O)c1ccc(C(=O)OC2CNCC2NC(=O)c2ccc(O)cc2)cc1` (stereo not shown) [Compound B-6] has an IC50 (PKG; [6]) of 40 nM, an IC50 (PKG; IC50 with PKG, Example 12) of 40 nM and an IC50 (PKG; PKG activity (IC50), Table 1) of 40 nM. The IC50 (PKG; PKG inhibition (IC50), Table 4) was 40 nM, the IC50 (PKA [1]; Example 12, read-out: IC50 with PKA) was 950 nM and the “difference of IC50 for PKA versus PKG” value (PKA [1]) was “about 20 fold”. For the same compound, the IC50 (PKA [1]; [7]) was 950 nM, the “Effectiveness (recovery)” value ([3]; 3.3 nmol, subcutaneous pump, 60 hours after CFA injection, 5 days later) was greater than 90% and the “Effectiveness (recovery)” value ([3]; 0.25 μM final CSF conc., intrathecal pump, 72 hours after CFA injection, 10 days) was greater than 50%. For the same compound, the Effectiveness ([3]; 25 μM final CSF conc., intrathecal pump, 6 days later) was greater than 90% 6 days, the Effectiveness ([3]; 82.5 μM final CSF conc., intrathecal single injection) was “No effect” and the “analgesic effects (in words)” value ([3]; doses and routes tested, preliminary results) was “analgesic effects comparable to that achieved with the most potent commercially available inhibitor of PKG”. For the same compound, the “effect on thermal hyperalgesia” value ([3]; single dose injection) was “failed to reduce thermal hyperalgesia” and the adverse behavioral effects (rats [4]) was “did not exhibit any adverse behavioral effects”.

With `COc1ccc(O)c(C(=O)c2ccc(C(=O)OC3CNCC3NC(=O)c3ccc(O)cc3)cc2)c1F` (stereo not shown) [Compound B-7] the IC50 (PKG; [6]) was 40 nM, the IC50 (PKG; PKG activity (IC50), Table 1) was 40 nM and the IC50 (PKG; PKG inhibition (IC50), Table 4) was 40 nM. The “difference of IC50 for PKA versus PKG” value (PKA [1]) was “approximately the same IC50”, the IC50 (PKA [1]; Series B, Table 2, read-out: Activity: IC50 vrs PKA) was 38 nM and the IC50 (PKA [1]; Table 1, read-out: PKA activity (IC50)) was 38 nM. The IC50 (PKA [1]; [7]) was 40 nM.

`CCCOc1ccc(OC)c(F)c1C(=O)c1ccc(C(=O)OC2CNCC2NC(=O)c2ccc(O)cc2)cc1` (stereo not shown) [Compound B-21] showed an IC50 (PKG; PKG inhibition (IC50), Table 4) of 200 nM and an IC50 (PKA [1]; [7]) greater than 10000 nM.

In the case of `O=C(N[C@@H]1CNC[C@H]1NC(=O)c1ccc(O)cc1)c1ccc(O)cc1` [Compound B-48], the “PKG inhibitory activity (in words)” value (PKG) is reported as “moderate PKG inhibitory activity” and the IC50 (PKG; Table 6, read-out: PKG inhibition (IC50)) is reported as roughly 200 nM.

With `O=C(N[C@@H]1CNC[C@H]1NC(=O)c1ccc2[nH]ncc2c1)c1ccc(O)cc1` [Compound B-50] the IC50 (PKG; IC50 (PKG), text b321) was 70 nM, the “selectivity over PKA (in words)” value (PKA [1]; PKG versus PKA) was “no selectivity over PKA” and the IC50 (PKA [1]; Table 6, read-out: PKA inhibition (IC50)) was 70 nM.

For `CCN(CC)CC.Nc1nc2c(nc(Sc3ccc(Cl)cc3)n2[C@@H]2O[C@@H]3COP(O)(=S)O[C@H]3[C@H]2O)c(=O)[nH]1` (stereo partly shown) [Rp-8-[4-chlorophenyl)thio]-cGMPS triethylamine], the “effect on acute pain” value (rats [5]) is given as “significant attenuation of acute pain”.

With `O=C(NC1CNCCCC1OC(=O)c1cc(O)c(C(=O)c2c(O)cccc2C(=O)O)c(O)c1)c1ccc(O)cc1` (stereo not shown) [balanol, reference compound] the IC50 (PKG; Table 3, read-out: PKG inhibition (IC50)) was 1.6 nM.
